Source: article PMC6270091, “GABAB-Agonistic Activity of Certain Baclofen Homologues” (Molecules, 2013)
Entries after “also recorded” stand apart in the source; their conditions may differ. Where a name gives a salt, the structure may show the parent alone.

Key:
[1] = target: T1, GABABR1b/GABABR2 receptors co-expressed with the chimeric G protein Gαq-z5 in tsA201 cells (Rattus norvegicus, UniProt Q9Z0U4); assay: GABAB agonist activity, intracellular calcium (Fluo-4) in transfected tsA201 cells; format: cell-based; conditions: Ca2+ response; for EC50: agonist, tsA201 cells transfected with GABAB1b/GABAB2/Gqz5; for GABABR agonistic activity (in words): tsA201 cells
T1 construct: expressed in transfected cells; host or cells: tsA201 cells (transformed HEK293), transient transfection with pcDNA3.1 plasmids using SuperFect
T1 sequence (Q9Z0U4 1-844 isoform Q9Z0U4-3): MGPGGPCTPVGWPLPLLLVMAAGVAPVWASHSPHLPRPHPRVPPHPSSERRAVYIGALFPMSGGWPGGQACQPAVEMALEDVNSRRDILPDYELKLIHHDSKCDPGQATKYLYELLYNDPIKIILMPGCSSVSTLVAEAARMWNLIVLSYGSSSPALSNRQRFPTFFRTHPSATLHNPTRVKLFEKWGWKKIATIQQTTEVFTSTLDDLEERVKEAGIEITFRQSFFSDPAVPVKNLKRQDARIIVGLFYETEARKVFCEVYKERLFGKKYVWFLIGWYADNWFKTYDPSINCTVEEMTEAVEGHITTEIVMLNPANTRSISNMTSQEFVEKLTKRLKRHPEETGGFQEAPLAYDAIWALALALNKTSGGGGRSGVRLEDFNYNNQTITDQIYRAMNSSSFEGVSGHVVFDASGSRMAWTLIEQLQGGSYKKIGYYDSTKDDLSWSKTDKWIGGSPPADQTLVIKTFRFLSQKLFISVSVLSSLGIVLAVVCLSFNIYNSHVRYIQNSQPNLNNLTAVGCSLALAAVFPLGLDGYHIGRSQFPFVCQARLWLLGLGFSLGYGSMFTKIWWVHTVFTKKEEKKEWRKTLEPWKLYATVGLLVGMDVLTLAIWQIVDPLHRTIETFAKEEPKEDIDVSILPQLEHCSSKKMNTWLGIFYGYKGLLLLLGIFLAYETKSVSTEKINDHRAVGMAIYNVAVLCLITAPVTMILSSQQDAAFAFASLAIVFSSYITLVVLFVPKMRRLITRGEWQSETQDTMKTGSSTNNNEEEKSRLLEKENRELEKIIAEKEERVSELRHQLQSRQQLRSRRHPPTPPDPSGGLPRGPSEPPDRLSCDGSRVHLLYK
T1 sequence (O88871 41-940 partner): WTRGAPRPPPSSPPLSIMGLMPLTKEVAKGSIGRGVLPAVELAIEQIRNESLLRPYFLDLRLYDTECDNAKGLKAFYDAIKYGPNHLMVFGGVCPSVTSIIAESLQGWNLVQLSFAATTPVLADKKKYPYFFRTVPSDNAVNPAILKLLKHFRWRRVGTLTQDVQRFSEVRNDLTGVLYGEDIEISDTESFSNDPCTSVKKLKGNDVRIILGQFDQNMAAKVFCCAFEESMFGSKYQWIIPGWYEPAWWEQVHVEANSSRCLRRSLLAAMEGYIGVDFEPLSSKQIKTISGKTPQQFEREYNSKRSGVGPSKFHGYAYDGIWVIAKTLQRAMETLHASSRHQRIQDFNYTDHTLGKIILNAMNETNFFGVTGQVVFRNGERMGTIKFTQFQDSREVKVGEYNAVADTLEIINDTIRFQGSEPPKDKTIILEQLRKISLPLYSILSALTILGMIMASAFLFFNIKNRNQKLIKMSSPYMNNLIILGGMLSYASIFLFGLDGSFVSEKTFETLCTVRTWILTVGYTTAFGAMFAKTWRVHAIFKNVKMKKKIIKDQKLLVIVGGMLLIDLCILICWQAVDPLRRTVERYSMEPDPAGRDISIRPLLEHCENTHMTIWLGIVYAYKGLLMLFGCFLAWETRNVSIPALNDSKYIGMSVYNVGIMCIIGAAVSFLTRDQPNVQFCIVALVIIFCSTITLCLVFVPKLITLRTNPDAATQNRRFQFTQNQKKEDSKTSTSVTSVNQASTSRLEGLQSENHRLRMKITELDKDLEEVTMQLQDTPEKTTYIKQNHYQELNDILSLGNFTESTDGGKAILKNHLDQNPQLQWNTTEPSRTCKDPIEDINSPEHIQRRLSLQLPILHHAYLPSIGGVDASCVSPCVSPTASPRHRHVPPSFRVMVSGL
Text: We have previously described a robust pharmacological assay of heterodimeric GABABR1b/GABABR2 receptors co-expressed with the chimeric G protein Gαq-z5 in tsA201 cells (a transformed HEK293 cell line). Co-expression of Gαq-z5 convert the endogenous coupling to the Gαi/o signaling pathway to the Gq pathway, which generally leads to more robust assays measured as increases in inositol phosphates or intracellular calcium levels.
Culture media, serum and antibiotics were obtained from Invitrogen (Paisley, UK). The rat GABABR plasmids and the Gαq-z5 construct were generous gifts from Dr. Janet Clark (National Institute of Health, Bethesda, MD, USA) and Dr. Bruce Conklin (University of California, San Francisco, CA, USA). The tsA201 cells were a generous gift from Dr. Penelope S. V. Jones (University of California, San Diego, CA, USA).
One million cells were split into a 10 cm tissue culture plate and transfected the following day with 0.7 μg GABABR1b-pcDNA3.1, 3.5 μg GABABR2-pcDNA3.1 and 0.7μg Gαq-z5-pcDNA using SuperFect as a DNA carrier according to the protocol by the manufacturer (Qiagen, Hilden, Germany). The day after transfection, cells were split into one poly-D-lysine coated 96-well black-walled–clear-bottomed tissue culture plates in the same medium as mentioned above and incubated overnight. The following day the measurement of intracellular calcium was performed as follows. The media was exchanged with Hanks balanced saline solution containing 1 mM CaCl2, 1 mM MgCl2, 20 mM HEPES, 2.5 mM probencid and 4 μM Fluo-4AM (pH = 7.4). […] Cells were then washed twice with the same buffer without Fluo-4AM and finally 100 μL of the buffer was left in the wells. […] Fluorescence readings were measured for 45 s after addition of ligand and response was calculated as peak response minus basal level. […] Twenty min after application of ligand, 10 μM GABA was added to the well and fluorescence was measured as above.
All data analysis has been carried out using GraphPad Prism version 6.0c for Mac OS X (GraphPad Software, San Diego, CA, USA). Concentration-response curves have been fitted by non-linear regression using the equation for sigmoidal concentration-response function:R = Rmin + (Rmax − Rmin)/(1 + 10 ^ (logEC50 − X)) in which X is the logarithm of the agonist concentration, R is the response, Rmax is the maximal response, Rmin is the minimal response and EC50 is the concentration giving half maximum response.

[2] = target: T1, GABABR1b/GABABR2 receptors co-expressed with the chimeric G protein Gαq-z5 in tsA201 cells; assay: GABAB antagonist test, intracellular calcium (Fluo-4) against 10 μM GABA in transfected tsA201 cells; format: cell-based; conditions: 1 mM concentration against 10 μM GABA
Text: Regarding the structure-activity relationship in the synthesized series 1a–i, it has to be mentioned that mono-substitution on the aromatic moiety attached to the 3-position of the DAVA backbone with a halogen, especially a para-chloro, is optimum for GABABR agonistic activity. The synthesized compounds which evoked GABABR agonistic activity have the following decreasing order of activity: 1a > 1e > 1f.
TsA201 cells (a transformed human embryonic kidney (HEK) 293 cell line) were maintained at 37 °C in a humidified 5% CO2 incubator in Dulbecco’s modified Eagle medium (DMEM) supplemented with penicillin (100 U/mL), streptomycin ([…]) and 10% fetal calf serum. One million cells were split into a 10 cm tissue culture plate and transfected the following day with 0.7 μg GABABR1b-pcDNA3.1, 3.5 μg GABABR2-pcDNA3.1 and 0.7μg Gαq-z5-pcDNA using SuperFect as a DNA carrier according to the protocol by the manufacturer (Qiagen, Hilden, Germany). The day after transfection, cells were split into one poly-D-lysine coated 96-well black-walled–clear-bottomed tissue culture plates in the same medium as mentioned above and incubated overnight. The following day the measurement of intracellular calcium was performed as follows. The media was exchanged with Hanks balanced saline solution containing 1 mM CaCl2, 1 mM MgCl2, 20 mM HEPES, 2.5 mM probencid and 4 μM Fluo-4AM (pH = 7.4). The cells were incubated for 1 h at 37 °C in a humidified 5% CO2 incubator. Cells were then washed twice with the same buffer without Fluo-4AM and finally 100 μL of the buffer was left in the wells. The cell plate was then transferred to the NovoStar (BMG Labtechnologies, Offenburg, Germany) and the basal fluorescence level was adjusted to ~10,000 fluorescence units (FU) using excitation/emission wavelengths of 485–520 nm, respectively. Fluorescence readings were measured for 45 s after addition of ligand and response was calculated as peak response minus basal level. […] Twenty min after application of ligand, 10 μM GABA was added to the well and fluorescence was measured as above.

[3] = system: GABAB receptors; parameters: method as in earlier work; conditions: cited from earlier work

Compound	melting point [°C]	EC50 [1] [µM]	GABABR antagonist activity [2]	other results
NCCC(CC(=O)O)c1ccc(Cl)cc1 (racemic) (as salt: hydrochloride) [Compound 1a, (R,S)-5-Amino-3-(4-chlorophenyl)pentanoic acid hydrochloride]	201 to 203	–	–	–
NCCC(CC(=O)O)c1ccc(Cl)cc1Cl (racemic) (as salt: hydrochloride) [Compound 1b, (R,S)-5-Amino-3-(2,4-chlorophenyl)pentanoic acid hydrochloride]	215 to 217	–	–	–
Cc1ccc(C(CCN)CC(=O)O)cc1 (racemic) (as salt: hydrochloride) [Compound 1c, (R,S)-5-Amino-3-(4-methylphenyl)pentanoic acid hydrochloride]	204 to 206	–	–	–
NCCC(CC(=O)O)c1ccccc1 (racemic) (as salt: hydrochloride) [Compound 1d, (R,S)-5-Amino-3-phenylpentanoic acid hydrochloride]	195 to 196	–	–	–
NCCC(CC(=O)O)c1ccc(Cl)c(Cl)c1 (racemic) (as salt: hydrochloride) [Compound 1e, (R,S)-5-Amino-3-(3,4-chlorophenyl)pentanoic acid hydrochloride]	201 to 203	–	–	–
NCCC(CC(=O)O)c1ccc(F)cc1 (racemic) (as salt: hydrochloride) [Compound 1f, (R,S)-5-Amino-3-(4-fluorophenyl)pentanoic acid hydrochloride]	208 to 210	–	–	–
COc1cccc(C(CCN)CC(=O)O)c1 (racemic) (as salt: hydrochloride) [Compound 1g, (R,S)-5-Amino-3-(3-methoxyphenyl)pentanoic acid hydrochloride]	182 to 184	–	–	–
COc1ccc(C(CCN)CC(=O)O)cc1 (racemic) (as salt: hydrochloride) [Compound 1h, (R,S)-5-Amino-3-(4-methoxyphenyl)pentanoic acid hydrochloride]	194 to 195	–	–	–
NCCC(CC(=O)O)c1ccc(Cl)cc1Cl (racemic) [Compound 1b, (R,S)-5-Amino-3-(2,4-chlorophenyl)pentanoic acid hydrochloride]	–	> 300	none of these compounds were effective	GABABR agonistic activity (in words) [1]: lack of GABABR agonistic activity
NCCC(CC(=O)O)c1ccc(F)cc1 (racemic) [Compound 1f, (R,S)-5-Amino-3-(4-fluorophenyl)pentanoic acid hydrochloride]	–	170	–	–
COc1cccc(C(CCN)CC(=O)O)c1 (racemic) [Compound 1g, (R,S)-5-Amino-3-(3-methoxyphenyl)pentanoic acid hydrochloride]	–	> 300	none of these compounds were effective	–
CC(CCN)CC(=O)O (racemic) [Compound 1i, (R,S)-5-amino-3-methylpentanoic acid]	164 to 165	> 300	none of these compounds were effective	GABABR agonistic activity (in words) [1]: loss of GABABR agonistic activity; also recorded: devoid of GABABR agonistic activity
NCCCC(C(=O)O)c1ccc(Cl)cc1 (racemic) [Compound 3, (R,S)-5-amino-2-(4-chlorophenyl)pentanoic acid]	–	–	–	interaction with GABAB receptors [3]: does not interact detectably

The next lines start with results.

melting point [°C]	EC50 [1] [µM]	GABABR antagonist activity [2]	Compound	other results
–	46	–	NCCC(CC(=O)O)c1ccc(Cl)cc1 (racemic) [Compound 1a, (R,S)-5-Amino-3-(4-chlorophenyl)pentanoic acid hydrochloride]	–
–	> 300	none of these compounds were effective	Cc1ccc(C(CCN)CC(=O)O)cc1 (racemic) [Compound 1c, (R,S)-5-Amino-3-(4-methylphenyl)pentanoic acid hydrochloride]	–
–	> 300	none of these compounds were effective	NCCC(CC(=O)O)c1ccccc1 (racemic) [Compound 1d, (R,S)-5-Amino-3-phenylpentanoic acid hydrochloride]	–
–	130	–	NCCC(CC(=O)O)c1ccc(Cl)c(Cl)c1 (racemic) [Compound 1e, (R,S)-5-Amino-3-(3,4-chlorophenyl)pentanoic acid hydrochloride]	–
–	> 300	none of these compounds were effective	COc1ccc(C(CCN)CC(=O)O)cc1 (racemic) [Compound 1h, (R,S)-5-Amino-3-(4-methoxyphenyl)pentanoic acid hydrochloride]	–
